Measured values reported in US7317038B2, “Nerve regeneration promoters containing semaphorin inhibitor as the active ingredient” (Dainippon Sumitomo Pharma Co., Ltd., priority 2000, dated 2008).

How the values were obtained:
[1] = biological target: T1, mouse semaphorin 3A (Sema3A) (Mus musculus, UniProt O08665); experiment: Suppression of growth cone collapse activity of Sema3A (chick embryo dorsal root ganglions); type: cell-based; conditions: E7 chick embryo dorsal root ganglions; 2 units/ml Sema3A added 1 hour after compound; concentration where collapse rate = (A+B)/2; read-out: IC50 of inhibition of the growth cone collapse activity of Sema3A (converted)
T1 sequence (O08665 21-772): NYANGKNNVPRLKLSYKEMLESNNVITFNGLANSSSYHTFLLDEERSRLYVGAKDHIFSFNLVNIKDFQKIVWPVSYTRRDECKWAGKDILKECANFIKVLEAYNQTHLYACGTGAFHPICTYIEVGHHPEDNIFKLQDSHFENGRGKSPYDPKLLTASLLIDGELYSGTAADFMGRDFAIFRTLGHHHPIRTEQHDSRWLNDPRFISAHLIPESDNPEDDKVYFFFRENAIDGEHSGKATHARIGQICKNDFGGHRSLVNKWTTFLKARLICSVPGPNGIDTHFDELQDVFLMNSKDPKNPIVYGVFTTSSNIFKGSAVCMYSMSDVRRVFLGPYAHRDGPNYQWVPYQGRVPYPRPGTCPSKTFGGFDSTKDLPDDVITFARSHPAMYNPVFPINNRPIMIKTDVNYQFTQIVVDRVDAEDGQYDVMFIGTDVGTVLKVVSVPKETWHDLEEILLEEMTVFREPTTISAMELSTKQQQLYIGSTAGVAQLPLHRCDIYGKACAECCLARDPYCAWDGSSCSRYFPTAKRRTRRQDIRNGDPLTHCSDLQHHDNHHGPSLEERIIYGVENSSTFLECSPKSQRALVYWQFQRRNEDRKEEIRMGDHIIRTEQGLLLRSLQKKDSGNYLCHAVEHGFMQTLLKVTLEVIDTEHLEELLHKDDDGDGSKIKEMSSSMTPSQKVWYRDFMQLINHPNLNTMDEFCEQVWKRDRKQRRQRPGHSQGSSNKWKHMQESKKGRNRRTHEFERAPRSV
Procedure: A 96-well plate (Sumitomo Bakelite Co., ltd. ) pre-coated with polylysine was further coated with laminine (20 μg/ml of laminine, for 1 hour at room temperature). Each well was added with 100 μl of medium (F12 medium containing 10% bovine fetal serum, 20 ng/ml of NGF, 100 units/ml of penicillin and 100 μg/ml of streptomycin) which media were then inoculated with dorsal root nerve ganglions excised from E7 (Embryonic day 7) chick embryo and were cultured for 16 to 20 hours under 5% CO2 and at 37° C. Subsequently, the object compounds were added to media at various concentrations and 2 units/ml of mouse semaphorin 3A (Sema3A) was added after cultivating for 1 hour. The cultures were further incubated for another 1 hour. Glutaraldehyde was quickly added therein after said 1 hour to make the final concentration 1%. The cultures were then left for 15 minutes at room temperature so that the tissue sections were fixed, and collapse rates of the growth cones were microscopically observed. A well with no addition of Sema3A was made the control.
The longitudinal and lateral axes in the figures represent the collapse rate of growth cones and the concentration of compounds, respectively. ●▪▴ show the results when Sema3A was added after the addition of the compounds and ◯[…]Δ show those when Sema3A was not added. Further, IC50 (μg/ml) of the inhibitors were determined by the method comprising: calculating the collapse rate of growth cone (A) % of the negative controls (neither compounds nor Sema3a was added); subsequently calculate the collapse rate of growth cone (B) % of the positive controls (compounds were not added but Sema3a was added); and the concentration was chosen for each compound from the chart where the collapse rate of growth cone met (A+B)/2(%), which was made IC50 level. The followings are the results.

[2] = biological target: T2, Sema3A (Mus musculus, UniProt O08665); experiment: Collagen gel co-culture: suppression of neurite outgrowth inhibitory action of Sema3A; type: cell-based; parameters: key to suppression of neurite outgrowth inhibitory activity of Sema3A, score / inhibition of neurite outgrowth-inhibitory action of Sema3A, score: neurites outgrew in a complete concentric circular shape just like for the control groups where Sema3A-non-expressing COS7 cells were used, it was scored +++ (a strong inhibitory effect for Sema3A); outgrowth was found almost in a concentric circular shape accompanied with a little suppression of the outgrowth toward the direction of Sema3A-expressing COS cells, it was scored ++; outgrowth toward the direction of Sema3A-expressing COS cells is fairly suppressed to present a crescent shape, it was scored +; outgrowth toward the direction of Sema3A-expressing COS cells was not found at all (no inhibitory effect for Sema3A), it was scored −; conditions: Example 16
T2 construct: expressed in transfected cells; host or cells: COS7
T2 sequence (O08665 21-772): T1 sequence (O08665 21-772)
Procedure: Whether the object compounds (SPF-3059-1, M162, A721) have persistent inhibitory action to Sema3A was analyzed by the collagen gel co-culture method (Neuroprotocols 4, 116, 1994) using Sema3A-expressing COS7 cell clumps and 7- or 8-day-old chick embryo dorsal root ganglions. The Sema3A-expressing COS7 cell clumps were generated as follows. 1 μg of Sema3A-expression plasmid was introduced into COS7 cells (100000 cells/35 mm culture plate), which were cultured overnight, with the FuGENE6 transfection reagent (Roche). 2.5 hours after the starting of the transfection, the COS7 cells were collected by trypsinization and centrifugation, and re-suspended in a medium of 200 μl. 20 μl of the cell suspension was placed on the lid of the culture plate (inside) and the lid was turned over, and then the suspension was cultivated for 20 hours (hanging drop culture) (Cell 78, 425, 1994). When the culture was over, aggregated COS7 cells (clump) were collected and trimmed to a diameter of 0.5 mm. The Sema3A-expressing COS7 cell clump and the above-mentioned dorsal root ganglions were placed in parallel at a distance of 0.5 to 1 mm in a 0.2% collagen gel which was then cultivated in a medium containing the aforementioned compounds at various concentrations for 2 days at 37° C. under 5% CO2. Glutaraldehyde was quickly added therein to make the final concentration 1%. The cultures were then left for 1 hour at room temperature so that the tissues were fixed, and the neurite outgrowth was microscopically observed. The results are found in FIG. 4.
When a medium not containing a subject compound was used, neurites were unable to grow towards the COS7 cell clump with the high concentration of Sema3A and grew only to the opposite direction.
In a similar way as in Example 4, suppression of the neurite outgrowth inhibitory activity was analyzed for the compounds, SPF-3059-1, SPF-3059-2 and SPF-3059-5. When the neurites outgrew in a complete concentric circular shape just like for the control groups where Sema3A-non-expressing COS7 cells were used, it was scored +++ (a strong inhibitory effect for Sema3A). When the outgrowth was found almost in a concentric circular shape accompanied with a little suppression of the outgrowth toward the direction of Sema3A-expressing COS cells, it was scored ++. […] When the outgrowth toward the direction of Sema3A-expressing COS cells was not found at all (no inhibitory effect for Sema3A), it was scored −.

[3] = tested on: COS7 cells; experiment: Effect on cell proliferation (MTT); type: cell-based; conditions: Chlorocebus aethiops, COS-7, 48 h, two days, read-out: IC50, inhibitory rate for cell proliferation
Procedure: COS7 cells were seeded onto a 96-well plate (medium 100 μl/well) at 10000 cells per well. At the same time, SPF-3059-1 of various concentrations was added and the cells were cultivated for two days in the presence of 5% CO2 at 37° C. Each well was then added with 10 μl of MTT solution at 5 mg/ml and cultured for another one hour. Subsequently, the culture supernatant was removed and formazan (an MTT derivative produced in viable cells) accumulated in the cells was dissolved by the addition of 50 μl DMSO and then the absorbance at 570 nm was measured to determine the proliferation of COS7 cells. […] The longitudinal and lateral axes in the figure show cell proliferation and the SPF-3059-1 concentration, respectively. Besides, the standard deviation (n=4) was added to each column.
The same effect on cell proliferation as in Example 9 was examined for the compounds, SPF-3059-1, SPF-3059-2 and SPF-3059-5. The wells with these compounds were served as samples, the wells with PBS were served as control, and the wells for which the experiment was carried out without adding the cells was served as blank. IC50 (μg/ml), the inhibitory rate for cell proliferation, was determined, which is calculated by the equation shown below. The inhibitory rate for cell proliferation (%)=(1−(absorbance of a sample well−absorbance of the blank well)/(absorbance of the control well−absorbance of the blank well))×100

[4] = Solubility; type: physicochemical

SMILES	IC50 [1]	inhibition of neurite outgrowth-inhibitory action of Sema3A, score ([2]; 2 μg/ml compound)	inhibition of neurite outgrowth-inhibitory action of Sema3A, score ([2]; 6 μg/ml compound)	inhibition of neurite outgrowth-inhibitory action of Sema3A, score ([2]; 20 μg/ml compound)	IC50 [3]	Solubility ([4]; methanol, DMSO)	Solubility ([4]; water, hexane)
CC(=O)c1cc2c(=O)c3c(C(=O)O)c(O)c(O)cc3oc2c(C(C)=O)c1-c1coc2cc(O)cc(C(=O)O)c2c1=O [SPF-3059-12]	3570 nM	+	+	++	> 100 µg/mL	Soluble	Insoluble
COCc1c(-c2cc3c(=O)c4c(C(=O)O)c(O)c(O)cc4oc3c(C(C)=O)c2C)oc2cc(O)c(O)c(C(=O)O)c2c1=O [SPF-3059-6]	169 nM	++	++	+++	> 100 µg/mL	Soluble	Insoluble
CC(=O)c1c(C)c(C(=O)C2COc3cc(O)c(O)c(C(=O)O)c3C2=O)cc2c(=O)c3c(C(=O)O)cc(O)cc3oc12 (stereo not drawn) [SPF-3059-7]	1780 nM	+	+	++	> 100 µg/mL	Soluble	Insoluble
CC(=O)c1c(C)c(C(=O)C2COc3cc(O)c(O)c(C(=O)O)c3C2=O)cc2c(=O)c3cc(O)c(O)cc3oc12 (stereo not drawn) [SPF-3059-3]	374 nM	+++			> 100 µg/mL	Soluble	Insoluble
CC(=O)c1cc2c(=O)c3c(C(=O)O)cc(O)cc3oc2c(C(C)=O)c1-c1coc2cc(O)c(O)c(C(=O)O)c2c1=O [SPF-3059-4]	3570 nM	−	+	++	> 100 µg/mL	Soluble	Insoluble
